{
  "source": "patent EP4389132A1",
  "about": "(priority 2021, dated 2023)",
  "key": {"[1]": {"biological_target": "T1, binding of SARS-CoV-2 to ACE2 (UniProt P0DTC2+Q9BYF1)", "T1 construct": "purchased RayBiotech Life, Inc", "experiment": "COVID-19 Spike-ACE2 Binding Assay Kit (RayBiotech): ACE2 protein binding to S-protein adsorption plate, absorbance at 450 nm", "design": "species or system human"}, "[2]": {"test_system": "influenza A/Kitakyushu/159/93 (H3N2)", "experiment": "Antiviral properties of treated natural rubber glove film, plaque method on MDCK cells", "format": "cell-based, influenza virus", "conditions": "glove immersed in 1% (V/V) aqueous solution for 10 minutes, dried; virus contact 1 hour at room temperature; control 6.78"}, "coronavirus (SARS-CoV-2)": {"test_system": "coronavirus (SARS-CoV-2)", "experiment": "Antiviral test of processed non-woven fabric according to ISO 18184, plaque method", "format": "cell-based", "conditions": "polyethylene terephthalate non-woven fabric immersed in 2% (V/V) aqueous solution, pickup rate 200%, dried at 110°C; control 6.63"}},
  "data": [
    {"molecule": "O[C@H]1[C@H](O)[C@@H](O)[C@H](O)[C@@H](O)[C@H]1O", "note": "[Myo-inositol, myo-inositol]", "values": [
      {"measurement": "Virus binding rate", "setting": "[1]; Concentration 2 % (V/V), relative binding rate, control = 1.00", "value": 1.00},
      {"measurement": "binding inhibitory effect on the binding of SARS-CoV-2 to ACE2 (in words)", "setting": "[1]; summary of Table 1", "value": "no binding inhibitory effect was observed"},
      {"measurement": "Viral infectivity titer", "setting": "[2]", "value": "4.1 PFU/0.1 mL, Log10"},
      {"measurement": "Viral infectivity titer", "setting": "coronavirus (SARS-CoV-2)", "value": "2.7 PFU/0.1 mL, Log10"}
    ]}
  ]
}
